Reference: ChEMBL document CHEMBL1150976, “The selectivity of protein kinase inhibitors: a further update” (Biochem J, 2007)

How the values were obtained:
[1] = biological target: Serine/threonine-protein kinase pim-1 (Homo sapiens, UniProt P11309); experiment: Percentage PIM1 activity remaining in the presence of 0.01uM inhibitor
[2] = biological target: Calcium/calmodulin-dependent protein kinase kinase 2 (Homo sapiens) (UniProt Q96RR4); experiment: Percentage CaMKKbeta activity remaining in the presence of 0.01uM inhibitor
[3] = biological target: Mitogen-activated protein kinase 14 (Homo sapiens, UniProt Q16539); experiment: Percentage p38alpha activity remaining in the presence of 0.01uM inhibitor
[4] = biological target: Maternal embryonic leucine zipper kinase (Homo sapiens) (UniProt Q14680); experiment: Percentage MELK activity remaining in the presence of 0.01uM inhibitor
[5] = biological target: T1, MAP kinase-activated protein kinase 5 (Homo sapiens) (UniProt Q8IW41); experiment: Percentage PRAK activity remaining in the presence of 0.01uM inhibitor
T1 sequence (whole entry): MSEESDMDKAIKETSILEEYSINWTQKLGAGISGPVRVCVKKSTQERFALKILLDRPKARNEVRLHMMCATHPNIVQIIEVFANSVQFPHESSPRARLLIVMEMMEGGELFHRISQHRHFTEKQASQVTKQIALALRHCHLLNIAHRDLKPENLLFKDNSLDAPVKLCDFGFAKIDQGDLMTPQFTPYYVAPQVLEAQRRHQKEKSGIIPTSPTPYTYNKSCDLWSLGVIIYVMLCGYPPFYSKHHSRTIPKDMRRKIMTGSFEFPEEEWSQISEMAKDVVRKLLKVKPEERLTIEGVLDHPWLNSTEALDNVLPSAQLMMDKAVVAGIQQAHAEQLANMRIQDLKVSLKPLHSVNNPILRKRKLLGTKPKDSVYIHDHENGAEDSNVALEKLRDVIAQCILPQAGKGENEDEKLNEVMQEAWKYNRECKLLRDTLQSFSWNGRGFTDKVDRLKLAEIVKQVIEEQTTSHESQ

[6] = biological target: Mitogen-activated protein kinase 3 (Homo sapiens) (UniProt P27361); experiment: Percentage ERK1 activity remaining in the presence of 0.01uM inhibitor
[7] = biological target: T2, Mitogen-activated protein kinase 15 (Homo sapiens) (UniProt Q8TD08); experiment: Percentage ERK8 activity remaining in the presence of 0.01uM inhibitor
T2 sequence (whole entry): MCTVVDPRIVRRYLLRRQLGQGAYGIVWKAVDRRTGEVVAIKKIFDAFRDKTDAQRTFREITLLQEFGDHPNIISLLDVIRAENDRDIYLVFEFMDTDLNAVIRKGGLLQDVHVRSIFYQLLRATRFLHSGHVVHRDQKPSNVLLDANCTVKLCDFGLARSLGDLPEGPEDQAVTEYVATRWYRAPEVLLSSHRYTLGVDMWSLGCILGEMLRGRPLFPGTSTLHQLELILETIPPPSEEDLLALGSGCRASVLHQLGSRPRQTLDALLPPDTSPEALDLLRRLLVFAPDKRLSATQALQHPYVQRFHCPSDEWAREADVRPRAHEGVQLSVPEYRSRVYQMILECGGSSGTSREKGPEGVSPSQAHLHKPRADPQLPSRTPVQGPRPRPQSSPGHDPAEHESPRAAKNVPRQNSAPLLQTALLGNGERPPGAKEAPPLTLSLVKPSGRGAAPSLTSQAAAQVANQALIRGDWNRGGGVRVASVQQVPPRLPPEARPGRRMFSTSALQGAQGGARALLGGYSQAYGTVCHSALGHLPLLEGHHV

[8] = biological target: T3, Serine/threonine-protein kinase D1 (Homo sapiens) (UniProt Q15139); experiment: Percentage PKD1 activity remaining in the presence of 0.01uM inhibitor
T3 sequence (whole entry): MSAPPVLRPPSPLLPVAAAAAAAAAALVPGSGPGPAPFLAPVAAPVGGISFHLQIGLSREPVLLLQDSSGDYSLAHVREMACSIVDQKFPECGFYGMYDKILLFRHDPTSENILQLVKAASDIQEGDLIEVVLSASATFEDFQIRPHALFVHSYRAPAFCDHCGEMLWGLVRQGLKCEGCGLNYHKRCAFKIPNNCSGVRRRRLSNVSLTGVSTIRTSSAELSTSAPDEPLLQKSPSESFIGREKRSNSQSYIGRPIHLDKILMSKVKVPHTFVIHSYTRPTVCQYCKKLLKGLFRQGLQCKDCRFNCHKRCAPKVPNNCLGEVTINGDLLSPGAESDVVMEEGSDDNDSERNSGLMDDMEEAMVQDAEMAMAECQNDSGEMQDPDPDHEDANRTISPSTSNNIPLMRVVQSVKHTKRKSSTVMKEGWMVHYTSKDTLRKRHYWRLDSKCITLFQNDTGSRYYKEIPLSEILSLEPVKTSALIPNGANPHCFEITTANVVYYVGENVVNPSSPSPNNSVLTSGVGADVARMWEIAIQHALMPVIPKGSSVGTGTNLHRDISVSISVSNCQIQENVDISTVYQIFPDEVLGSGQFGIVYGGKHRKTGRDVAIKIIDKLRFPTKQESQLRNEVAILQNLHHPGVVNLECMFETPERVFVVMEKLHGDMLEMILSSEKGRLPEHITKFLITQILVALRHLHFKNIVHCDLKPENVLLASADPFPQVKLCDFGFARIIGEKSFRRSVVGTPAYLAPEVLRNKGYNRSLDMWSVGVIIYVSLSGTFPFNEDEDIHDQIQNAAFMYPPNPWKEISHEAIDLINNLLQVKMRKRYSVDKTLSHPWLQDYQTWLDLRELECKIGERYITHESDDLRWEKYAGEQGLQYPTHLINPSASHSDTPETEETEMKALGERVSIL

[9] = biological target: T4, Serine/threonine-protein kinase Chk1 (Homo sapiens) (UniProt O14757); experiment: Percentage CHK1 activity remaining in the presence of 0.01uM inhibitor
T4 sequence (whole entry): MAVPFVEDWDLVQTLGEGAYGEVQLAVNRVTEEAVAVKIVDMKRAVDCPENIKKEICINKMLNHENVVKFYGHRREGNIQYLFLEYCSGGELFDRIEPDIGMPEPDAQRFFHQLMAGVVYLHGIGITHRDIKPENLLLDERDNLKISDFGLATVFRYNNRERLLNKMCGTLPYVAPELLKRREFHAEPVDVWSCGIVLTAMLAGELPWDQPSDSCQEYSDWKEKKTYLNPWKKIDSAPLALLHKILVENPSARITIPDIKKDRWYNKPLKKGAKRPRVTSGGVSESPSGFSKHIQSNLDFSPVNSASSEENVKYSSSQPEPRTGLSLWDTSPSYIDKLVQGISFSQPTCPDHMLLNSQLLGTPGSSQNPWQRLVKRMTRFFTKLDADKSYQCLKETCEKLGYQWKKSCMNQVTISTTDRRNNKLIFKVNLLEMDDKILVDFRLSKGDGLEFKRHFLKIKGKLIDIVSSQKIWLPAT

[10] = biological target: Mitogen-activated protein kinase 10 (Homo sapiens) (UniProt P53779); experiment: Percentage JNK3 activity remaining in the presence of 0.01uM inhibitor
[11] = biological target: Ribosomal protein S6 kinase alpha-1 (Homo sapiens) (UniProt Q15418); experiment: Percentage RSK1 activity remaining in the presence of 0.01uM inhibitor
Sequence of Ribosomal protein S6 kinase alpha-1 (Homo sapiens) (Q15418 whole entry): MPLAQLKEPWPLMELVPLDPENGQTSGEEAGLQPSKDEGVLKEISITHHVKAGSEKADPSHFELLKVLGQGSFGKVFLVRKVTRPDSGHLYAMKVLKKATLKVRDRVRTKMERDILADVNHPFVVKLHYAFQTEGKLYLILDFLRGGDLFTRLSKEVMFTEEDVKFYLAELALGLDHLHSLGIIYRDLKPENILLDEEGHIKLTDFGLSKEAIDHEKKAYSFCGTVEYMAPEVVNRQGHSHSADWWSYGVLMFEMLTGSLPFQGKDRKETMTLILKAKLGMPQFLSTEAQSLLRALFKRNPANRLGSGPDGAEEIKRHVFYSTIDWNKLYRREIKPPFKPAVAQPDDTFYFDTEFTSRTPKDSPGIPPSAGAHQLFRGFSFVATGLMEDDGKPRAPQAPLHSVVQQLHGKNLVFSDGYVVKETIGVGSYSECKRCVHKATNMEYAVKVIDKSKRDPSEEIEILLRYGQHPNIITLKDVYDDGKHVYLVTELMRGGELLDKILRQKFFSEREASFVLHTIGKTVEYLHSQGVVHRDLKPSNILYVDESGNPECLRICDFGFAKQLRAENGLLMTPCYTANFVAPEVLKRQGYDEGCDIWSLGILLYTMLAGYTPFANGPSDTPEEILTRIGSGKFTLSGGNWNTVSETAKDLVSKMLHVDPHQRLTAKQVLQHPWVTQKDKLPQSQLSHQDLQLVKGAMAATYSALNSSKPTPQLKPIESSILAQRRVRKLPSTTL

Sequence of Serine/threonine-protein kinase pim-1 (P11309 whole entry, looked up): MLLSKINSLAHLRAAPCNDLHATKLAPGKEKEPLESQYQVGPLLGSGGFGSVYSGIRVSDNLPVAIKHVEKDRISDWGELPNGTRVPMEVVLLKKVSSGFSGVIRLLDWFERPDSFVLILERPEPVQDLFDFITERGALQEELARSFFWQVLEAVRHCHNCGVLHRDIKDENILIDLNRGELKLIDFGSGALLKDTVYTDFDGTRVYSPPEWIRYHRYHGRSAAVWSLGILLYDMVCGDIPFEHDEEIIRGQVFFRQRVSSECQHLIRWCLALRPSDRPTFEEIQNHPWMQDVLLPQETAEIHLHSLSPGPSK
Sequence of Mitogen-activated protein kinase 10 (Homo sapiens) (P53779 whole entry): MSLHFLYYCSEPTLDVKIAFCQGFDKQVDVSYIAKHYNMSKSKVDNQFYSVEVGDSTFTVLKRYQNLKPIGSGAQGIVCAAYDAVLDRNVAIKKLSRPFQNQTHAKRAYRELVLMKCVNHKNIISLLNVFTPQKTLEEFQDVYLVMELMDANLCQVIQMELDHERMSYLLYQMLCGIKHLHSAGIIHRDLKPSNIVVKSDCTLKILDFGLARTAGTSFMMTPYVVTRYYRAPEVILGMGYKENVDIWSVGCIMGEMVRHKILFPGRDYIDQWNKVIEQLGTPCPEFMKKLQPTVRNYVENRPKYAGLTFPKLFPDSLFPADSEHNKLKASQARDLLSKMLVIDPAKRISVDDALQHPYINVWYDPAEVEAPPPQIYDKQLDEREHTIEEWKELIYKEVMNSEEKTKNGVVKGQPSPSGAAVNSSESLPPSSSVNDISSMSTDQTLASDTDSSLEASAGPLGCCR
Sequence of Mitogen-activated protein kinase 14 (Q16539 whole entry): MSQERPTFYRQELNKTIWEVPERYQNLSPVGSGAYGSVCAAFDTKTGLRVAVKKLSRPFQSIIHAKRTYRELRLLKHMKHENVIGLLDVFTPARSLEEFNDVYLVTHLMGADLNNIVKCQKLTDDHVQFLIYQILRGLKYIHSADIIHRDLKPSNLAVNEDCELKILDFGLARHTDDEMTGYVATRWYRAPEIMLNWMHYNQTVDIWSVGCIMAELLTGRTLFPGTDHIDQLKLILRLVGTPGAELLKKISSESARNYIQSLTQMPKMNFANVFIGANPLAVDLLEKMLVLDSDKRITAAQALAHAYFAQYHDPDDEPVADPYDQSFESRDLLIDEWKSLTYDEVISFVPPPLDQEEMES
Sequence of Calcium/calmodulin-dependent protein kinase kinase 2 (Homo sapiens) (Q96RR4 2-588 limits assumed): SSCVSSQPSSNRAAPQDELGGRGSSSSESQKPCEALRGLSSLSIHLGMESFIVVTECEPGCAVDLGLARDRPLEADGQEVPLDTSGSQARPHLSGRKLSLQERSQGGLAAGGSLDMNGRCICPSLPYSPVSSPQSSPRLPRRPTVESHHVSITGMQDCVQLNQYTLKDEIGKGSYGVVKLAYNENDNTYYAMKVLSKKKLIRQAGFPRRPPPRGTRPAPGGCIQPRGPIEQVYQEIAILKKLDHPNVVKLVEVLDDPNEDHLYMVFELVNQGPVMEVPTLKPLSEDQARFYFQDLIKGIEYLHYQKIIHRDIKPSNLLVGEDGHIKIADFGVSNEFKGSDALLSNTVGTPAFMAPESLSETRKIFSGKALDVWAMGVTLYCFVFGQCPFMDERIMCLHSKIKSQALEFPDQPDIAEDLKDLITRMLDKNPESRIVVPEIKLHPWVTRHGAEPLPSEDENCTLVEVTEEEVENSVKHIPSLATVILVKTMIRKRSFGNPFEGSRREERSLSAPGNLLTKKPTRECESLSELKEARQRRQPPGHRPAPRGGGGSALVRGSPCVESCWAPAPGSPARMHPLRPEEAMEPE
Sequence of Maternal embryonic leucine zipper kinase (Homo sapiens) (Q14680 whole entry, looked up): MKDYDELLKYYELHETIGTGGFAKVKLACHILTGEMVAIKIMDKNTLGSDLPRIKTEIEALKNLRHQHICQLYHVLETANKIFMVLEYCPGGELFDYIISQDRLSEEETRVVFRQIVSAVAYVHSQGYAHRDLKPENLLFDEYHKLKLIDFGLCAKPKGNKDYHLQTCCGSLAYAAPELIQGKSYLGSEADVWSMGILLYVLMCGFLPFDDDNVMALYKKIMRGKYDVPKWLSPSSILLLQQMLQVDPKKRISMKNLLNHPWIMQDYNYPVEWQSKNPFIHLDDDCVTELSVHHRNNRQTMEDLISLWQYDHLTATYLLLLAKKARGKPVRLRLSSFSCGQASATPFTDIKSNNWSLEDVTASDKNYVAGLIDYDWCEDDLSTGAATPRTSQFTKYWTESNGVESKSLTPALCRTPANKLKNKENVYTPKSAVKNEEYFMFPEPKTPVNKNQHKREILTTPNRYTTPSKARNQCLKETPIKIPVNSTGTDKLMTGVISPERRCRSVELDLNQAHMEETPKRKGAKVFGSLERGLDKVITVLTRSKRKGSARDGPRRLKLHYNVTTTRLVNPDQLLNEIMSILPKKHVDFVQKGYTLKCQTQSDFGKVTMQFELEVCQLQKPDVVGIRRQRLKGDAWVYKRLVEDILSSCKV
Sequence of Mitogen-activated protein kinase 3 (Homo sapiens) (P27361 whole entry): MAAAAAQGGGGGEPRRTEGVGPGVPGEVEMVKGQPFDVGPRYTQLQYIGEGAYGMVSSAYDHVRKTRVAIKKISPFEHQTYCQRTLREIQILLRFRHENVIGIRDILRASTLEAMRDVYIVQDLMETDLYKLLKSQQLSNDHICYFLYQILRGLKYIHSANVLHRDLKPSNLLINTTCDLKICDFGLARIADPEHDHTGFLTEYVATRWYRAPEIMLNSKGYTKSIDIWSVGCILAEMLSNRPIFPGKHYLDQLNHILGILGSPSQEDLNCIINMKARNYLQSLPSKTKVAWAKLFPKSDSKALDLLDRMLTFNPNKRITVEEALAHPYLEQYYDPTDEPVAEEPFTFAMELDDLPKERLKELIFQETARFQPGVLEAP

Structure (SMILES) | Activity [1] | Activity [2] | Activity [3] | Activity [4] | Activity [5] | Activity [6] | Activity ([7]; filed as antagonist) | Activity [8] | Activity [9] | Activity [10] | Activity [11] | Activity ([2]; filed as antagonist) | Activity [7] | Activity ([9]; filed as antagonist) | Activity ([11]; filed as antagonist)
O=C(NCCCNc1nc(Nc2cccc(NC(=O)N3CCCC3)c2)ncc1I)c1cccs1 | 103% | 82% | 86% | 95% | 97% | 82% | 40% | 84% | 84% | 93% | 100% | – | – | – | –
CN[C@@H]1C[C@H]2O[C@@](C)([C@@H]1OC)n1c3ccccc3c3c4c(c5c6ccccc6n2c5c31)C(=O)N[C@H]4O (stereo in doubt) | 52% | – | 105% | 53% | 83% | 112% | – | 83% | – | 107% | – | 21% | 92% | 12% | 25%
Cc1n[nH]c2ccc(-c3cncc(OC[C@@H](N)Cc4c[nH]c5ccccc45)c3)cc12 | 57% | 83% | 131% | 96% | 107% | 77% | – | 63% | 100% | 81% | 78% | – | 61% | – | –
